Assay results published in PMC11211886 (Frontiers in Pharmacology, 2024).
Several values for one entry are separate records, joined by “and”; a condition that tells them apart may be missing. Equal entries are not always repeated.

What was measured:
OAT3 = target: T1, OAT3 (Homo sapiens, UniProt Q8TCC7); test: OAT3 inhibition, estrone 3-sulfate uptake in transfected HEK293 cells
T1 sequence (Q8TCC7 1-542): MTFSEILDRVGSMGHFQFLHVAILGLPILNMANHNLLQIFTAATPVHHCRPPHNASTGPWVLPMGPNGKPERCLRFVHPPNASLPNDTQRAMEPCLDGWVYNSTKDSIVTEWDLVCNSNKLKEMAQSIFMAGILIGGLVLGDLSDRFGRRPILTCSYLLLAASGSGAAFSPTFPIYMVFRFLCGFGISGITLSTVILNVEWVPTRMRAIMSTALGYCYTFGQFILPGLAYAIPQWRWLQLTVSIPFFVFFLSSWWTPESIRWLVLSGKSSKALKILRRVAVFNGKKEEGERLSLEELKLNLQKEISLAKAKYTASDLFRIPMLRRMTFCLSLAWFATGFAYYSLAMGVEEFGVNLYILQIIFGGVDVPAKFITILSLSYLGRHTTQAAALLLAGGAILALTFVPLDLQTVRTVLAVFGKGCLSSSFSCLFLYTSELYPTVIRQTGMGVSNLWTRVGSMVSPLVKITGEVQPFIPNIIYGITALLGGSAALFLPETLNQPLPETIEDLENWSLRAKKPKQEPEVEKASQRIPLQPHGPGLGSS
Protocol: (§1) The pre-incubation solutions were removed, and incubation solutions containing the inhibitors and probe substrates (or transport buffer containing an equal volume of vehicle control and probe substrates) were added and incubated at 37°C for 2 min (5 min for OATP1B3). The probe substrate for OAT1 was 4-aminohippuric acid (10 μM), for OAT3 was estrone 3-sulfate (10 μM), for OCT2 was metformin (100 μM), for OATP1B1 was β-estradiol 17-(β-D-glucuronide) (5 μM), for OATP1B3 was β-estradiol 17-(β-D-glucuronide) (10 μM), and for MATE1 and MATE2-K was tetraethylammonium (10 μM). After incubation, cells were washed three times with ice-cold transport buffer (25 mM HEPES, pH 7.4, pH 8.0 for overexpressing MATE1 and MATE2-K HEK293 cells) and lysed in distilled water. The concentrations of probe substrates were determined by LC-MS/MS, and a BCA Kit (Solarbio ®Life Sciences, Beijing, China) was used to determine the protein content in the cell lysate.
(§2) where C is the concentration of the drug in the cell lysate (nM), P is the protein concentration of the cell lysate (mg/mL), and T is the incubation time (minute). Uptake ratetest compound is the uptake rate of the substrate in the presence of the test compound. Uptake ratevehicle control is the uptake rate of the substrate in the presence of the vehicle control. Uptake ratepassive is the uptake rate of the substrate in the presence of the positive inhibitor at the top test concentration.

MATE1 = target: T2, MATE1 (Homo sapiens, UniProt Q96FL8); test: MATE1 inhibition, tetraethylammonium uptake in transfected HEK293 cells
T2 sequence (Q96FL8 1-570): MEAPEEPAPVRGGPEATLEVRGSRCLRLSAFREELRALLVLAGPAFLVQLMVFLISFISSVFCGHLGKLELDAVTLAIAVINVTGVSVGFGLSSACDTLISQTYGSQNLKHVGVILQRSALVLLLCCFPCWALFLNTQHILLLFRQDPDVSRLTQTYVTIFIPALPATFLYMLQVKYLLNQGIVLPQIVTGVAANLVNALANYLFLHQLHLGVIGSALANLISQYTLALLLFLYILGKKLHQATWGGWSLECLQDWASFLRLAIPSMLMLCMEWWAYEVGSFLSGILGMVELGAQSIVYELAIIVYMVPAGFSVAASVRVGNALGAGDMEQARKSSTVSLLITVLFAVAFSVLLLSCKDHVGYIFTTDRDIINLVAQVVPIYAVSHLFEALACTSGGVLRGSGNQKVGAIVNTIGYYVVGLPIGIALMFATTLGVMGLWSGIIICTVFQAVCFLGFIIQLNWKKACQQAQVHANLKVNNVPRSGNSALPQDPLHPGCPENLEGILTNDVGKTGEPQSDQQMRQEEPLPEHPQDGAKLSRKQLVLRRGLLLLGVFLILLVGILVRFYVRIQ
Protocol: as §1, §2

MATE2-K = MATE2-K (Homo sapiens, UniProt Q86VL8); test: MATE2-K inhibition, tetraethylammonium uptake in transfected HEK293 cells
Protocol: as §1, §2

[1] = Excretion/mass balance of [14C] amdizalisib in BDI and BDC rats; type: in vivo, SD rat; conditions: for Cumulative recovery of radioactivity, Bile / Cumulative recovery of radioactivity, Cage washing / Cumulative recovery of radioactivity, Feces / Cumulative recovery of radioactivity, Total recovery / Cumulative recovery of radioactivity, Urine: PO 5 mg/100 μCi/kg; for unchanged drug recovered in bile / unchanged drug recovered in feces / unchanged drug recovered in urine: % of administered dose
Protocol: Rats were divided into seven groups according to the sampling time points, with six rats (male: female = 1: 1) in each group, except that Group 1 h used three male rats and Group 2 h and Group 72 h used three female rats, respectively. […] Plasma and tissue samples were collected at 0.5, 1, 6, 24, and 48 h after dosing for male rats and at 0.5, 2, 6, 24, 48, and 72 h after dosing for female rats. […] After blood collection, the rats were sacrificed, and 18 tissues, namely, brain, breast, skin, fat, testis, ovary, bladder, pancreas, skeletal muscle, heart, lung, kidney, liver, stomach, small intestine, colon, spleen, and spinal cord, were removed from the rats at designated time points. These tissues were washed with saline and dried with filter paper. Aliquots of tissues were accurately weighed and then homogenized in 50% (v/v) methanol/water (10 mL/1 g tissue). […] Twelve rats (207–277 g) were divided into the bile-duct cannulation (BDC) group and the bile-duct intact (BDI) group, with six rats (male: female = 1:1) in each group. […] Urine and feces were collected at pre-dose (0) and 24 h through 168 h post-dose (the first 24 h interval split into 0–8 and 8–24 h for urine) for BDI rats. For BDC rats, urine and feces were collected at pre-dose (0) and 72 h post-dose (the first 24 h interval split into 0–8 and 8–24 h for urine), and bile was collected at pre-dose (0), 0–4, 4–8, 8–24, 24–48, and 48–72 h post-dose. Cage-washing fluids were collected at 24 h intervals until the last sampling time point for both groups. Another BDI rat was orally administered a blank vehicle (0.5% CMC-Na, 0.5 g/100 mL), and urine and feces were collected 24 h post-dose. The weight of the collected samples was recorded. Samples were stored in a −20°C freezer until analysis.
For the determination of drug-derived radioactivity in the excretion study in SD rats, urine (0.1 g), bile (0.025 g), and cage wash samples (1 g) were mixed well with scintillation solution (5 mL for urine and cage wash samples; 10 mL for bile samples) and directly analyzed by a liquid scintillation counter (LSC, Perkin Elmer, Waltham, MA, United States). An appropriate amount of isopropanol: water (1:1, v/v) was added to the feces samples and thoroughly homogenized. Pooled fecal homogenate (0.3 g) was combusted in a Sample Oxidizer 501 (RJ Harvey Instrument, Tappan, NY, USA), and the generated ^14CO2 was trapped in a 15 mL scintillation solution and further analyzed for radioactivity by LSC using a Tri-Carb 3110 TR counter (Perkin Elmer, Waltham, MA, United States). The radioactive concentrations of urine, bile, feces, and cage washings were calculated with the counted disintegration per minute (DPM). The percentage of administered dose recovered (% dose recovered) was calculated using the following equation: % dose recovered=Total radioactivity DPM in sample/ radioactivity DPM in dosing formulation×100.

[2] = BDC rat, 0–72 h, female (n = 3)
[3] = BDC rat, 0–72 h, male and female (n = 6)
[4] = BDI rat, 0–168 h, female (n = 3)
[5] = BDI rat, 0–168 h, male and female (n = 6)

MATE2-K, sequence (Q86VL8 1-566 isoform Q86VL8-3): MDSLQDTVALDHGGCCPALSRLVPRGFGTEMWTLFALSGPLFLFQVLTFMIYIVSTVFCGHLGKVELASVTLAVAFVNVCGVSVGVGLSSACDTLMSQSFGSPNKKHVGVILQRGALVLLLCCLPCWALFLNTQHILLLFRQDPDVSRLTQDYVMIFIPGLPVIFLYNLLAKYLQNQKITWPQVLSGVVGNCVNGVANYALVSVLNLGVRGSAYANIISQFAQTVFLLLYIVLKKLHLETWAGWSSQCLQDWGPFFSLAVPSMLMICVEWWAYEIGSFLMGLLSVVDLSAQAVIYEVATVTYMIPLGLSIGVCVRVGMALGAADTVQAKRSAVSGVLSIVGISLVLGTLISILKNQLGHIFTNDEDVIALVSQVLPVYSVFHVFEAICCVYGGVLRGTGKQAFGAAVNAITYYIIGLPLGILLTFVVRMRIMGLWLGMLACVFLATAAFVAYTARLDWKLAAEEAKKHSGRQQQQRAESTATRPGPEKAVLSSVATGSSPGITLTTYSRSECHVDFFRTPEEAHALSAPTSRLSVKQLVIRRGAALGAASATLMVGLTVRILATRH

CCCN(CCC)S(=O)(=O)c1ccc(C(=O)O)cc1 [Probenecid, reference compound]
Percentage transported (OAT3; OAT3, compound 100 μM): 0.00%
Uptake rate (OAT3; OAT3, compound 100 μM): 19.5±2.26 pmol/mg protein/min
inhibition at 2 min, 100 µM (OAT3; human, pH 7.4): 100%

CCc1nc(N)nc(N)c1-c1ccc(Cl)cc1 [Pyrimethamine, reference compound]
IC50 (MATE1): 12.5 nM
Percentage transported (MATE1; MATE1, compound 1 μM): 0.00%
Uptake rate (MATE1; MATE1, compound 1 μM): 12.5±2.43 pmol/mg protein/min
inhibition at 2 min, 1 µM (MATE1; human, pH 8): 100%
IC50 (MATE2-K): 13.6 nM
Percentage transported (MATE2-K; MATE2-K, compound 1 μM): 0.00%
Uptake rate (MATE2-K; MATE2-K, compound 1 μM): 7.55±1.58 pmol/mg protein/min
inhibition at 2 min, 1 µM (MATE2-K; human, pH 8): 100%

[^14C] amdizalisib
Cumulative recovery of radioactivity, Bile [1, 2]: 49.81 ± 2.07%
Cumulative recovery of radioactivity, Cage washing [1, 2]: 2.24 ± 1.90%
Cumulative recovery of radioactivity, Feces [1, 2]: 19.81 ± 4.98%
Cumulative recovery of radioactivity, Total recovery [1, 2]: 90.31 ± 0.91%
Cumulative recovery of radioactivity, Urine [1, 2]: 18.45 ± 4.01%
Cumulative recovery of radioactivity, Bile ([1]; BDC rat, 0–72 h, male (n = 3)): 58.17 ± 4.68%
Cumulative recovery of radioactivity, Cage washing ([1]; BDC rat, 0–72 h, male (n = 3)): 0.89 ± 0.37%
Cumulative recovery of radioactivity, Feces ([1]; BDC rat, 0–72 h, male (n = 3)): 8.98 ± 2.64%
Cumulative recovery of radioactivity, Total recovery ([1]; BDC rat, 0–72 h, male (n = 3)): 91.99 ± 1.88%
Cumulative recovery of radioactivity, Urine ([1]; BDC rat, 0–72 h, male (n = 3)): 23.96 ± 8.70%
Cumulative recovery of radioactivity, Bile [1, 3]: 53.99 ± 5.61%
Cumulative recovery of radioactivity, Cage washing [1, 3]: 1.57 ± 1.43%
Cumulative recovery of radioactivity, Feces [1, 3]: 14.40 ± 6.92%
Cumulative recovery of radioactivity, Total recovery [1, 3]: 91.15% and 91.15 ± 1.61%
Cumulative recovery of radioactivity, Urine [1, 3]: 21.20 ± 6.77%
fraction of the oral dose absorbed (bile + urine radioactivity) ([1]; BDC rats, 0–72 h, PO 5 mg/kg): at least 75.19%
Cumulative recovery of radioactivity, Cage washing [1, 4]: 4.72 ± 2.41%
Cumulative recovery of radioactivity, Feces [1, 4]: 71.15 ± 0.22%
Cumulative recovery of radioactivity, Total recovery [1, 4]: 91.59 ± 0.97%
Cumulative recovery of radioactivity, Urine [1, 4]: 15.72 ± 2.62%
Cumulative recovery of radioactivity, Cage washing ([1]; BDI rat, 0–168 h, male (n = 3)): 2.84 ± 0.17%
Cumulative recovery of radioactivity, Feces ([1]; BDI rat, 0–168 h, male (n = 3)): 63.14 ± 3.98%
Cumulative recovery of radioactivity, Total recovery ([1]; BDI rat, 0–168 h, male (n = 3)): 90.69 ± 1.16%
Cumulative recovery of radioactivity, Urine ([1]; BDI rat, 0–168 h, male (n = 3)): 24.71 ± 4.46%
Cumulative recovery of radioactivity, Cage washing [1, 5]: 3.78 ± 1.84%
Cumulative recovery of radioactivity, Feces [1, 5]: 67.15 ± 5.06%
Cumulative recovery of radioactivity, Total recovery [1, 5]: 91.14% and 91.14 ± 1.07%
Cumulative recovery of radioactivity, Urine [1, 5]: 20.21 ± 5.91%
total radioactivity recovered ([1]; BDI rats, within 48 h post-dose): over 80%
unchanged drug recovered in bile ([1]; female rats): 4.70%
unchanged drug recovered in feces ([1]; female rats): 29.80%
unchanged drug recovered in urine ([1]; female rats): 0.03%
unchanged drug recovered in bile ([1]; male rats): 2.69%
unchanged drug recovered in feces ([1]; male rats): 23.20%
unchanged drug recovered in urine ([1]; male rats): < 0.01%
